Data set [1] deals with Recombinant human JAK1 catalytic domain (Homo sapiens (Human), UniProt P23458). The experiment in a line: JAK1 inhibition assay. The class given is biochemical. The settings on record: semi-quantitative score. In short, it runs like this:
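IC50 values come from dose-response series, with each point expressed as percent inhibition of cpm. Vehicle sets full activity and 10 μM staurosporine sets background. Incorporated radioactivity counted by scintillation after washing with 75 mM phosphoric acid.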

In data set [2] the target is Recombinant human JAK2 catalytic domain (Homo sapiens (Human), UniProt O60674). Briefly: JAK2 inhibition assay. The class given is biochemical. To be noted: semi-quantitative score. In short, it runs like this:
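Activity was taken as vehicle cpm minus cpm with 10 μM staurosporine, and inhibition was expressed on that scale. Incubation was 90 min at 30 °C, followed by acid quench, phosphoric acid washes and Microscint counting. Compounds were tested as dose series to obtain IC50.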

The test system of data set [3] is JAK-STAT signalling in HeLa cells. Briefly: JAK-STAT signalling assay (OSM-triggered pSTAT1(2)-luciferase reporter in HeLa cells). The class given is cell-based. The settings on record: Homo sapiens; HeLa cells, OSM-triggered pSTAT1(2)-luciferase reporter; read-out: STAT signalling EC50. A digest of the protocol:
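Read-out is oncostatin M–driven pSTAT1(2)-luciferase activity, corrected by co-transfected LacZ β-galactosidase, in transiently transfected HeLa cells cultured overnight at 37 °C, 10% CO2. Inhibition percentages against positive and negative controls were plotted across doses to derive EC50.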
On the technique in general: A reporter such as luciferase makes a cellular process visible.

The subject of a further data set is MMP13 in SW1353 cells. Briefly: OSM/IL-1β signaling assay (MMP13 levels in SW1353 cells).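 Further: secreted MMP13 captured by antibody, activated with APMA and its activity read by fluorescence, inhibition scaled between vehicle-treated triggered wells (0%) and untriggered wells (100%).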 The class given is cell-based. To be noted: Homo sapiens; SW1353 cells, OSM and IL-1β triggered, MMP13 levels 48 hours after triggering; read-out: MMP13 EC50.
Data set [4] can be described thus: Microsomal stability, human liver microsomes. The class given is in vitro ADME. To be noted: percentage of compound remaining after 60 minutes, 3 μM compound. A digest of the protocol: (§1)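 Percent parent remaining after 60 min was determined by LCMS against a time-zero sample quenched before microsome addition. Incubations ran at 37°C with liver microsomes and a G6PDH-based NADPH-regenerating cofactor mix. Quench was MeOH or ACN (1:1).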
Background: Liver microsomes are vesicles of endoplasmic reticulum, rich in cytochrome P450 enzymes.

A short description of data set [5]: Microsomal stability, rat liver microsomes. The class given is in vitro ADME. The settings on record: percentage of compound remaining after 60 minutes, 3 μM compound. In short, it runs like this: as §1
Data set [6] can be described thus: Caco2 permeability (bi-directional). The class given is in vitro ADME, human. To be noted: human, pH 7.4; for Papp A→B at 1 h, 10 µM: Caco-2, apical to basolateral, read-out: Papp (A2B); for efflux ratio at 1 h, 10 µM: Caco-2, ratio of PappB>A/PappA>B. As to the method:
Bi-directional Caco-2 assays were performed as described below.
2×10^5 cells/well were seeded in plating medium consisting of DMEM+GlutaMAXI+1% NEAA+10% FBS (FetalClone II)+1% Pen/Strep. The medium was changed every 2-3 days.
50 μM Lucifer Yellow (Sigma) was added to the donor buffer in all wells to assess integrity of the cell layers by monitoring Lucifer Yellow permeation. As Lucifer Yellow (LY) cannot freely permeate lipophilic barriers, a high degree of LY transport indicates poor integrity of the cell layer.
After a 1 hour incubation at 37° C. while shaking at an orbital shaker at 150 rpm, 70 μL aliquots were taken from both apical (A) and basal (B) chambers and added to 100 μL1 50:50 acetonitrile:water solution containing analytical internal standard (0.5 μM carbamazepine) in a 96 well plate.
Concentrations of compound in the samples were measured by high performance liquid-chromatography/mass spectroscopy (LC-MS/MS).
The Efflux ratios, as an indication of active efflux from the apical cell surface, were calculated using the ratio of PappB>A/PappA>B.
The following assay acceptance criteria were used:
Lucifer yellow permeability: ≤100 nm/s
Background: Caco-2 cells form a polarised layer with tight junctions and transporters.

The source of these data is patent publication US10206907B2, “Compounds useful for the treatment of degenerative and inflammatory diseases” (GALAPAGOS NV, priority 2008, dated 2019).

Each structure is given as a SMILES string. A value given as a limit tells only on which side of the number the result lay.

As a reminder, the IC50 is the point on the concentration scale where inhibition reaches its midpoint. As usually defined, the EC50 is the concentration needed to bring the measured effect to its halfway point. For orientation: efflux ratio means a quotient of directional permeabilities that is used to spot active efflux.

Recombinant human JAK1 catalytic domain, sequence (P23458 850-1154): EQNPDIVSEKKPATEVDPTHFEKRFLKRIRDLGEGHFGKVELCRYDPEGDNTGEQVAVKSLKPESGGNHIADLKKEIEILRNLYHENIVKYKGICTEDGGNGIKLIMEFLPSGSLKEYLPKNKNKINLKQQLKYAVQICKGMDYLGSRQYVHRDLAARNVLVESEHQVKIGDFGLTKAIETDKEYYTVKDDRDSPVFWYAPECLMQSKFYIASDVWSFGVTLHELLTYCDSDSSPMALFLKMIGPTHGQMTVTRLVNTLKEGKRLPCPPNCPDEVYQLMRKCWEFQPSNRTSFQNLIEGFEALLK
Recombinant human JAK2 catalytic domain, sequence (O60674 808-1132): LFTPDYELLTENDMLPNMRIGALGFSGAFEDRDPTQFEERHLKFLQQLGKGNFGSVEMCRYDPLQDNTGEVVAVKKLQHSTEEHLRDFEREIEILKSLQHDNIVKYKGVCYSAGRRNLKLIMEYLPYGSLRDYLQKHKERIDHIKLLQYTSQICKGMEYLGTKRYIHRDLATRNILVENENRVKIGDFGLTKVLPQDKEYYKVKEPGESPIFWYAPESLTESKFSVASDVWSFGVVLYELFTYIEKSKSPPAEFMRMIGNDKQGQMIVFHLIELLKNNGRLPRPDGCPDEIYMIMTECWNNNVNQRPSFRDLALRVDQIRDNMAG

As to `N#CCc1ccccc1NCc1ccc(-c2cccc3nc(NC(=O)C4CC4)nn23)cc1` [Compound 225, Cyclopropanecarboxylic acid (5-{4-[(2-cyanomethyl-phenylamino)-methyl]-phenyl}-[1,2,4]triazolo[1,5-a]pyridin-2-yl)-amide], the IC50 in data set [1] and in data set [2] was less than 100 nM throughout. In addition, the EC50 in data set [3] was in the range of 101 to 500 nM; in the data set with MMP13 in SW1353 cells it was 1 to 500 nM. For the same molecule, the “Microsomal Stability Human (%)” value in data set [4] is on record as “* (* 0-25)”. In addition, in data set [5], the “Microsomal Stability Rat (%)” value is reported as “* (* 0-25)”.
`O=C(Nc1nc2cccc(-c3ccc(CNc4ccccc4F)cc3)n2n1)C1CC1` [Compound 226, Cyclopropanecarboxylic acid (5-{4-[(2-fluoro-phenylamino)-methyl]-phenyl}-[1,2,4]triazolo[1,5-a]pyridin-2-yl)-amide]: the half-inhibitory concentration (IC50) in data set [1] and in data set [2] was less than 100 nM each time. The EC50 in data set [3] is 101 to 500 nM; in the data set with MMP13 in SW1353 cells, 501 to 1000 nM. Also, the “Microsomal Stability Human (%)” value in data set [4] is “* (* 0-25)”. For the same molecule, in data set [5], the “Microsomal Stability Rat (%)” value is given as “* (* 0-25)”.
`O=C(Nc1nc2cccc(-c3ccc(CN4CCC(F)CC4)cc3)n2n1)C1CC1` [Compound 233, Cyclopropanecarboxylic acid {5-[4-(4-fluoro-piperidin-1-ylmethyl)-phenyl]-[1,2,4]triazolo[1,5-a]pyridin-2-yl}-amid]: the half-maximal inhibitory concentration (IC50) in data set [1] and in data set [2] was less than 100 nM each time. The EC50 in data set [3] was greater than 1000 nM; in the data set with MMP13 in SW1353 cells, 501 to 1000 nM. Besides, in data set [4], the “Microsomal Stability Human (%)” value is “*** (*** 51-75)”. Further, the “Microsomal Stability Rat (%)” value in data set [5] is on record as “** (** 26-50)”.
For `COc1ccc(NCc2ccc(-c3cccc4nc(NC(=O)C5CC5)nn34)cc2)cn1` [Compound 236, Cyclopropanecarboxylic acid (5-{4-[(6-methoxy-pyridin-3-ylamino)-methyl]-phenyl}-[1,2,4]triazolo[1,5-a]pyridin-2-yl)-amide], the IC50 in data set [1] and in data set [2] was less than 100 nM each time. In addition, the EC50 was 501 to 1000 nM in data set [3] and 1 to 500 nM in the data set on MMP13 in SW1353 cells. The “Microsomal Stability Human (%)” value in data set [4] is “* (* 0-25)”. Besides, in data set [5], the “Microsomal Stability Rat (%)” value is on record as “* (* 0-25)”.
For `O=C(Nc1nc2cccc(-c3ccc(CN4CCN(CC(F)(F)F)CC4)cc3)n2n1)C1CC1` [Compound 241, Cyclopropanecarboxylic acid (5-{4-[4-(2,2,2-trifluoro-ethyl)-piperazin-1-ylmethyl]-phenyl}-[1,2,4]triazolo[1,5-a]pyridin-2-yl)-amide], the figures for the IC50 in data set [1] and in data set [2] were less than 100 nM and 101 to 500 nM, respectively. Besides, the 50% effective concentration (EC50) was 501 to 1000 nM in data set [3] and greater than 1000 nM with MMP13 in SW1353 cells. In addition, in data set [4], the “Microsomal Stability Human (%)” value is reported as “*** (*** 51-75)”. Besides, in data set [5], the “Microsomal Stability Rat (%)” value is given as “**** (**** 76-100)”.
With `O=C(Nc1nc2cccc(-c3ccc(CNc4ccccn4)cc3)n2n1)C1CC1` [Compound 244, Cyclopropanecarboxylic acid (5-[4-(pyridin-2-ylaminomethyl)-phenyl]-[1,2,4]triazolo[1,5-a]pyridin-2-yl}-amide], the IC50 in data set [1] and in data set [2] was less than 100 nM throughout. In addition, the EC50 (in data set [3]; in the data set on MMP13 in SW1353 cells) was 501 to 1000 nM in each case. Besides, the “Microsomal Stability Human (%)” value in data set [4] was “* (* 0-25)”. Also, in data set [5], the “Microsomal Stability Rat (%)” value is listed as “* (* 0-25)”.
As to `COc1c(F)ccc(NCc2ccc(-c3cccc4nc(NC(=O)C5CC5)nn34)cc2)c1F` [Compound 245, Cyclopropanecarboxylic acid (5-{4-[(2,4-difluoro-3-methoxy-phenylamino)-methyl]-phenyl}-[1,2,4]triazolo[1,5-a]pyridin-2-yl)-amide], the IC50 in data set [1] and in data set [2] was less than 100 nM in each case. Moreover, the 50% effective concentration (EC50) in data set [3] was 101 to 500 nM; in the data set on MMP13 in SW1353 cells, greater than 1000 nM. The “Microsomal Stability Human (%)” value in data set [4] is listed as “* (* 0-25)”. Moreover, the “Microsomal Stability Rat (%)” value in data set [5] is “* (* 0-25)”.
Regarding `O=C(Nc1nc2cccc(-c3ccc(CNc4c(F)cccc4F)cc3)n2n1)C1CC1` [Compound 246, Cyclopropanecarboxylic acid (5-{4-[(2,6-difluoro-phenylamino)-methyl]-phenyl}-[1,2,4]triazolo[1,5-a]pyridin-2-yl)-amide], the half-maximal inhibitory concentration (IC50) in data set [1] and in data set [2] was less than 100 nM throughout. The values for the concentration for a half-maximal effect (EC50) (in data set [3]; with MMP13 in SW1353 cells) were 101 to 500 nM and 501 to 1000 nM, respectively. Moreover, in data set [4], the “Microsomal Stability Human (%)” value is “* (* 0-25)”. In data set [5], the “Microsomal Stability Rat (%)” value was “* (* 0-25)”.
On to `O=C(Nc1nc2cccc(-c3ccc(CNc4ncc(F)cc4F)cc3)n2n1)C1CC1` [Compound 257, Cyclopropanecarboxylic acid (5-{4-[(3,5-difluoro-pyridin-2-ylamino)-methyl]-phenyl}-[1,2,4]triazolo[1,5-a]pyridin-2-yl)-amide], for which the half-maximal inhibitory concentration (IC50) in data set [2] was less than 100 nM. In data set [6], the Papp A→B at 1 h, 10 µM was found to be 24 ×10⁻⁶ cm/s and the efflux ratio at 1 h, 10 µM was 1.1.
For the molecule `O=C(Nc1nc2cccc(-c3ccc(CC(=O)N4CCCCC4)cc3)n2n1)C1CC1` [Compound 266, Cyclopropanecarboxylic acid {5-[4-(2-oxo-2-piperidin-1-yl-ethyl)-phenyl]-[1,2,4]triazolo[1,5-a]pyridin-2-yl}-amide], the 50% inhibitory concentration (IC50) was less than 100 nM in data set [1] and 101 to 500 nM in data set [2]. Also, the 50% effective concentration (EC50) in data set [3] is 501 to 1000 nM; in the data set with MMP13 in SW1353 cells, greater than 1000 nM. In data set [4], the “Microsomal Stability Human (%)” value is listed as “* (* 0-25)”. In addition, the “Microsomal Stability Rat (%)” value in data set [5] is reported as “**** (**** 76-100)”.
For the molecule `O=C(Nc1nc2cccc(-c3ccc(CC(=O)N4CCS(=O)(=O)CC4)cc3)n2n1)C1CC1` [Compound 267, Cyclopropanecarboxylic acid (5-{4-[2-(1,1-dioxo-thiomorpholin-4-yl)-2-oxo-ethyl]-phenyl}-[1,2,4]triazolo[1,5-a]pyridin-2-yl)-amide], the half-maximal inhibitory concentration (IC50) in data set [1] was less than 100 nM; in data set [2], 101 to 500 nM. Moreover, the EC50 (in data set [3]; in the data set with MMP13 in SW1353 cells) was greater than 1000 nM in each case. Also, the “Microsomal Stability Human (%)” value in data set [4] is recorded as “**** (**** 76-100)”. Besides, the “Microsomal Stability Rat (%)” value in data set [5] is “**** (**** 76-100)”.
In the case of `CN(C(=O)c1ccc(-c2cccc3nc(NC(=O)C4CC4)nn23)cc1)C1CCS(=O)(=O)C1` (centres unmarked) [Compound 273, 4-[2-(Cyclopropanecarbonyl-amino)-[1,2,4]triazolo[1,5-a]pyridin-5-yl]-N-(1,1-dioxo-tetrahydrothiophen-3-yl)-N-methyl-benzamide], the concentration for half-maximal inhibition (IC50) in data set [1] and in data set [2] was less than 100 nM each time. Besides, the EC50 (in data set [3]; in the data set with MMP13 in SW1353 cells) was greater than 1000 nM in each case. The “Microsomal Stability Human (%)” value in data set [4] was “**** (**** 76-100)”. Also, in data set [5], the “Microsomal Stability Rat (%)” value was “**** (**** 76-100)”.
In the case of `CC(=O)N(Cc1ccc(C#N)nc1)c1ccc(-c2cccc3nc(NC(=O)C4CC4)nn23)cc1` [Compound 297, Cyclopropanecarboxylic acid (5-{4-[acetyl-(6-cyano-pyridin-3-ylmethyl)-amino]-phenyl}-[1,2,4]triazolo[1,5-a]pyridin-2-yl)-amide], the 50% inhibitory concentration (IC50) in data set [1] and in data set [2] was less than 100 nM each time. Besides, the EC50 (in data set [3]; in the data set with MMP13 in SW1353 cells) was greater than 1000 nM each time. In addition, in data set [5], the “Microsomal Stability Rat (%)” value is listed as “**** (**** 76-100)”. Also, the Papp A→B at 1 h, 10 µM in data set [6] was 1.05 ×10⁻⁶ cm/s. The efflux ratio at 1 h, 10 µM in data set [6] worked out at 70.2.
`N#CCc1ccc(OCc2ccc(-c3cccc4nc(NC(=O)C5CC5)nn34)cc2)cc1` [Compound 301, Cyclopropanecarboxylic acid {5-[4-(4-cyanomethyl-phenoxymethyl)-phenyl]-[1,2,4]triazolo[1,5-a]pyridin-2-yl}-amide]: the 50% inhibitory concentration (IC50) in data set [1] and in data set [2] was less than 100 nM each time. For the same molecule, the EC50 in data set [3] is 101 to 500 nM; in the data set with MMP13 in SW1353 cells, greater than 1000 nM. Besides, in data set [5], the “Microsomal Stability Rat (%)” value was “* (* 0-25)”. Further, the Papp A→B at 1 h, 10 µM in data set [6] was found to be 13.9 ×10⁻⁶ cm/s. Further, the efflux ratio at 1 h, 10 µM in data set [6] was 1.31.
